{
  "source": "patent US6359144B1",
  "about": "“Combinatorial libraries of bicyclic guanidine derivatives and compounds therein” (Lion Bioscience AG, priority 1997, dated 2002)",
  "note": "pIC50: −log10 of the molar value. Several values for one entry are separate records, joined by “and”; a condition that tells them apart may be missing. Equal values may be shown once.",
  "data": [
    {"molecular_target": "T1, calmodulin (Homo sapiens, UniProt P0DP23)", "T1 construct": "purchased Boehringer Mannheim (calmodulin); Sigma (PDE, 5'-nucleotidase)", "test": "Calmodulin-dependent phosphodiesterase (CaMPDE) assay", "type": "biochemical", "conditions": "53 individual compounds, Table 17", "description": "An example of an assay that identifies CaM antagonists is a CaMPDE assay, such as the one whose results are shown in Examples IX to XII, below. Samples are mixed with 50 μl of assay buffer (360 mM Tris, 360 mM Imidazole, 45 mM Mg(CH3COO)2, pH 7.5) and 10 μl of CaCl2 (4.5 mM) to a final volume of 251 μl. 25 μl of calmodulin stock solution (Boehringer Mannheim; 0.01 μg/μl) is then added and the samples then sit at room temperature for 10 minutes. 14 μl of PDE (Sigma; 2 Units dissolved in 4 ml of water; stock concentration: 0.0005 Units/μl) is then added, followed by 50 μl of 5′-nucleotidase (Sigma; 100 Units dissolved in 10 ml of 10 mM Tris-HCl containing 0.5 mM Mg(CH3COO)2, pH 7.0; stock concentration: 10 Units/ml). The samples are then incubated for 10 minutes at 30° C. 50 μl of adenosine 3′,5′-cyclic monophosphate (cAMP) (20 mM in water at pH 7.0) is added, the samples incubated for 1 hour at 30° C. and then vortexed. 200 μl of trichloroacetic acid (TCA) (55% in water) is added to a 200 μl sample aliquot, which is then vortexed and centrifuged for 10 minutes. 80 μl of the resulting supernatants of each sample is transferred to a 96-well plate, with 2 wells each containing 80 μl of each sample. 80 μl of ammonium molybdate (1.1% in 1.1N H2SO4) is then added to all the wells, and the OD of each were determined at 730 nm, with the values later subtracted to the final OD reading. 16 μl of reducing agent (6 g sodium bisulfite, 0.6 g sodium sulfite and 125 mg of 1-amino-2-naphtol-4-sulfonic acid in 50 ml of water) is then added to one of each sample duplicate and 16 μl of water is added to the other duplicate. After sitting for 1 hour at room temperature, the OD of each well is determined at 730 nm. […]", "values": [
      {"molecule": "CC(C)(C)C1CCC(CN2C3=NC[C@@H](CC4CCCCC4)N3C[C@H]2CC2CCCCC2)CC1", "note": "(some centres unmarked)", "pIC50": 5.35},
      {"molecule": "CC(C)(C)C1CCC(CN2C3=NC[C@@H](CC4CCCCC4)N3C[C@H]2C2CCCCC2)CC1", "note": "(some centres unmarked)", "pIC50": 5.33},
      {"molecule": "CC(C)(C)C1CCC(CN2C3=NC[C@@H](CC4CCCCC4)N3C[C@@H]2CC2CCCCC2)CC1", "note": "(some centres unmarked)", "pIC50": 5.55},
      {"molecule": "CC(C)(C)C1CCC(CN2C3=NC[C@@H](CC4CCCCC4)N3C[C@@H]2C2CCCCC2)CC1", "note": "(some centres unmarked)", "pIC50": 5.33},
      {"molecule": "CC(C)(C)C1CCC(CN2C3=NC[C@@H](C4CCCCC4)N3C[C@H]2C2CCCCC2)CC1", "note": "(some centres unmarked)", "pIC50": 4.81},
      {"molecule": "CC(C)(C)C1CCC(CN2C3=NC[C@@H](C4CCCCC4)N3C[C@@H]2C2CCCCC2)CC1", "note": "(some centres unmarked)", "pIC50": 4.97},
      {"molecule": "CC(C)(C)C1CCC(CN2C3=NC[C@H](CC4CCCCC4)N3C[C@H]2CC2CCCCC2)CC1", "note": "(some centres unmarked)", "pIC50": 5.72},
      {"molecule": "CC(C)(C)C1CCC(CN2C3=NC[C@H](CC4CCCCC4)N3C[C@H]2C2CCCCC2)CC1", "note": "(some centres unmarked)", "pIC50": 5.40},
      {"molecule": "CC(C)(C)C1CCC(CN2C3=NC[C@H](CC4CCCCC4)N3C[C@@H]2CC2CCCCC2)CC1", "note": "(some centres unmarked)", "pIC50": 5.65},
      {"molecule": "CC(C)(C)C1CCC(CN2C3=NC[C@H](CC4CCCCC4)N3C[C@@H]2C2CCCCC2)CC1", "note": "(some centres unmarked)", "pIC50": 5.00},
      {"molecule": "CC(C)(C)C1CCC(CN2C3=NC[C@H](C4CCCCC4)N3C[C@H]2C2CCCCC2)CC1", "note": "(some centres unmarked)", "pIC50": 4.88},
      {"molecule": "CC(C)(C)C1CCC(CN2C3=NC[C@H](C4CCCCC4)N3C[C@@H]2C2CCCCC2)CC1", "note": "(some centres unmarked)", "pIC50": 4.84},
      {"molecule": "CC(C)(C)C1CCC(CN2C3=NC[C@H](Cc4ccccc4)N3C[C@@H]2Cc2ccccc2)CC1", "note": "(some centres unmarked)", "pIC50": 4.67},
      {"molecule": "CC(C)(C)C1CCC(CN2C3=NCC(C4CCCCC4)N3CC2CC2CCCCC2)CC1", "note": "(single isomer, unassigned) [listing 1 of 4 here]", "pIC50": 5.06},
      {"molecule": "CC(C)(C)C1CCC(CN2C3=NCC(C4CCCCC4)N3CC2CC2CCCCC2)CC1", "note": "(single isomer, unassigned) [listing 2 of 4 here]", "pIC50": 5.50},
      {"molecule": "CC(C)(C)C1CCC(CN2C3=NCC(C4CCCCC4)N3CC2CC2CCCCC2)CC1", "note": "(single isomer, unassigned) [listing 3 of 4 here]", "pIC50": 5.62},
      {"molecule": "CC(C)(C)C1CCC(CN2C3=NCC(C4CCCCC4)N3CC2CC2CCCCC2)CC1", "note": "(single isomer, unassigned) [listing 4 of 4 here]", "pIC50": 5.28},
      {"molecule": "C1CCC(CC2CN3C(=NCC3CC3CCCCC3)N2CCC23CC4CC(CC(C4)C2)C3)CC1", "note": "(single isomer, unassigned) [D-cha/D-cha/1-adamantaneacetic acid]", "pIC50": 4.99},
      {"molecule": "C1CCC(CC2CN3C(=NCC3CC3CCCCC3)N2CCC23CC4CC(CC(C4)C2)C3)CC1", "note": "(single isomer, unassigned) [D-cha/L-Cha/1-adamantaneacetic acid]", "pIC50": 5.40},
      {"molecule": "C1CCC(CC2CN3C(=NCC3C3CCCCC3)N2CCC23CC4CC(CC(C4)C2)C3)CC1", "note": "(single isomer, unassigned) [D-chg/D-cha/1-adamantaneacetic acid]", "pIC50": 4.82},
      {"molecule": "C1CCC(C2CN3C(=NCC3C3CCCCC3)N2CCC23CC4CC(CC(C4)C2)C3)CC1", "note": "(single isomer, unassigned) [D-chg/D-chg/1-adamantaneacetic acid]", "pIC50": 4.67},
      {"molecule": "C1CCC(CC2CN3C(=NCC3C3CCCCC3)N2CCC23CC4CC(CC(C4)C2)C3)CC1", "note": "(single isomer, unassigned) [D-chg/L-Cha/1-adamantaneacetic acid]", "pIC50": "5.32 and 5.19"},
      {"molecule": "C1CCC(C2CN3C(=NCC3C3CCCCC3)N2CCC23CC4CC(CC(C4)C2)C3)CC1", "note": "(single isomer, unassigned) [D-chg/L-Chg/1-adamantaneacetic acid]", "pIC50": 4.89},
      {"molecule": "C1CCC(CC2CN3C(=NCC3CC3CCCCC3)N2CCC23CC4CC(CC(C4)C2)C3)CC1", "note": "(single isomer, unassigned) [L-Cha/D-cha/1-adamantaneacetic acid]", "pIC50": 5.65},
      {"molecule": "C1CCC(CC2CN3C(=NCC3CC3CCCCC3)N2CCC23CC4CC(CC(C4)C2)C3)CC1", "note": "(single isomer, unassigned) [L-Cha/L-Cha/1-adamantaneacetic acid]", "pIC50": 5.10},
      {"molecule": "C1CCC(CC2CN3C(=NCC3C3CCCCC3)N2CCC23CC4CC(CC(C4)C2)C3)CC1", "note": "(single isomer, unassigned) [L-Chg/D-cha/1-adamantaneacetic acid]", "pIC50": 5.55},
      {"molecule": "C1CCC(C2CN3C(=NCC3C3CCCCC3)N2CCC23CC4CC(CC(C4)C2)C3)CC1", "note": "(single isomer, unassigned) [L-Chg/D-chg/1-adamantaneacetic acid]", "pIC50": 5.34},
      {"molecule": "C1CCC(CC2CN3C(=NCC3C3CCCCC3)N2CCC23CC4CC(CC(C4)C2)C3)CC1", "note": "(single isomer, unassigned) [L-Chg/L-Cha/1-adamantaneacetic acid]", "pIC50": "4.87 and 4.59"},
      {"molecule": "C1CCC(C2CN3C(=NCC3C3CCCCC3)N2CCC23CC4CC(CC(C4)C2)C3)CC1", "note": "(single isomer, unassigned) [L-Chg/L-Chg/1-adamantaneacetic acid]", "pIC50": 4.70},
      {"molecule": "CCN1C2=NC[C@@H](C)N2C[C@@H]1Cc1ccccc1", "note": "[D-ala/L-Phe/acetic acid]", "pIC50": 4.40},
      {"molecule": "C1CCC(C[C@@H]2CN=C3N2C[C@@H](C2CCCCC2)N3CCC23CC4CC(CC(C4)C2)C3)CC1", "note": "[D-cha/D-chg/1-adamantaneacetic acid]", "pIC50": 4.76},
      {"molecule": "C1CCC(C[C@@H]2CN=C3N2C[C@H](C2CCCCC2)N3CCC23CC4CC(CC(C4)C2)C3)CC1", "note": "[D-cha/L-Chg/1-adamantaneacetic acid]", "pIC50": 4.99},
      {"molecule": "C1CCC(CCCN2C3=NC[C@@H](C4CCCCC4)N3C[C@@H]2CC2CCCCC2)CC1", "note": "[D-chg/L-Cha/cyclohexylpropionic acid]", "pIC50": 4.81},
      {"molecule": "C1CCC(C[C@H]2CN=C3N2C[C@@H](C2CCCCC2)N3CCC23CC4CC(CC(C4)C2)C3)CC1", "note": "[L-Cha/D-chg/1-adamantaneacetic acid]", "pIC50": 5.21},
      {"molecule": "C1CCC(C[C@H]2CN=C3N2C[C@H](C2CCCCC2)N3CCC23CC4CC(CC(C4)C2)C3)CC1", "note": "[L-Cha/L-Chg/1-adamantaneacetic acid]", "pIC50": 4.79},
      {"molecule": "CC(C)C[C@@H]1CN2C(=NC[C@@H]2C2CCCCC2)N1CCC12CC3CC(CC(C3)C1)C2", "note": "[L-Chg/D-leu/1-adamantaneacetic acid]", "pIC50": 4.77},
      {"molecule": "CC(C)C[C@@H]1CN2C(=NC[C@@H]2C2CCCCC2)N1CCCC1CCCCC1", "note": "[L-Chg/D-leu/cyclohexylpropionic acid]", "pIC50": 4.60},
      {"molecule": "CCN1C2=NC[C@H](Cc3ccccc3)N2C[C@H]1Cc1c[nH]c2ccccc12", "note": "[L-Phe/D-trp/acetic acid]", "pIC50": 4.71},
      {"molecule": "c1ccc(C[C@H]2CN=C3N(CCC45CC6CC(CC(C6)C4)C5)[C@@H](Cc4ccccc4)CN32)cc1", "note": "[L-Phe/L-Phe/1-adamantaneacetic acid]", "pIC50": 4.78},
      {"molecule": "O=[N+]([O-])c1ccc(CCN2C3=NC[C@H](Cc4ccccc4)N3C[C@@H]2Cc2ccccc2)c([N+](=O)[O-])c1", "note": "[L-Phe/L-Phe/2,4-dinitrophenylacetic acid]", "pIC50": 4.90},
      {"molecule": "c1ccc(CC2CN3C(=NCC3Cc3ccccc3)N2CCc2ccc(-c3ccccc3)cc2)cc1", "note": "[L-Phe/L-Phe/4-biphenylacetic acid]", "pIC50": 4.85},
      {"molecule": "c1ccc(CC2CN3C(=NCC3Cc3ccccc3)N2CCCCC2CCCCC2)cc1", "note": "[L-Phe/L-Phe/cyclohexylbutyric acid]", "pIC50": 5.16},
      {"molecule": "c1ccc(CC2CN3C(=NCC3Cc3ccccc3)N2CCCC2CCCCC2)cc1", "note": "[L-Phe/L-Phe/cyclohexylpropionic acid]", "pIC50": 4.67},
      {"molecule": "CCN1C2=NC[C@H](Cc3ccccc3)N2C[C@@H]1Cc1c[nH]c2ccccc12", "note": "[L-Phe/L-Trp/acetic acid]", "pIC50": 4.61}
    ]}
  ]
}
